{
  "source": "patent US5218000A",
  "about": "“Therapeutic polyamine-amides” (priority 1988, dated 1993)",
  "key": {"[1]": {"tested_on": "invertebrate L-quisqualate sub-type L-glutamate receptor and its ion channel", "experiment": "locust isolated retractor unguis nerve-muscle preparation, twitch amplitude on electrical stimulation", "type": "cell-based, Schistocerca gregaria", "settings": "for IC50: locust retractor unguis muscle, electrically stimulated", "description": "The compounds were assayed for biological activity on the isolated, retractor unguis nerve-muscle preparation of the locust Schistocerca gregaria (Usherwood, P.N.R and Machili, P. (1968) J. Exp. Biol., 49: 341.). Isolated muscle preparations were bathed continuously in standard locust saline in a bath of volume 250 μl. Twitch tension recordings of the muscle were made to electrical stimulation of its motor innervation supramaximal voltage, frequency 0.1 Hz).\nThe locust isolated retractor unguis nerve-muscle is a preparation with well characterised muscle receptors belonging to the quisqualate-sensitiveclass (Boden, P. et al., (1986) Brain Res., 385: 205.). This preparation has previously been employed to identify antogonists of excitatory amino acid receptors, (e.g. Bateman, A. et al., (1985) Brain Res., 339: 237 and Budd, T. et al., (1988) Brain Res., 448: 30.). Excitatory amino acid receptors are also believed to be of considerable importance in the mammal and for therapeutic applications.\nThe potency of this monoacylated spermine as an antagonist of the complex formed by the invertebrate L-quisqualate sub-type L-glutamate receptor and its ion channel was assayed using the electrically stimulated retractor unguis muscle of the locust (Schistocerca gregaria). Twitch amplitude was reduced ([…]) from control (100%) levels at the following concentrations: […]"}, "quizqualate receptor": {"tested_on": "quizqualate receptor", "experiment": "rat cerebral cortex slice (wedge, grease-gap), AMPA-induced depolarisation response", "type": "cell-based, Wistar rats", "settings": "rat brain slice", "source_text": "(§1) Coronal slices of cerebral cortex were cut with a Vibratome from the brains of freshly killed Wistar rats. Wedges of tissue were cut from either side of the mid-line to include the cortex and corpus callosum. The wedges were mounted in a grease-gap apparatus such that the cortex protruded into one compartment and the corpus callosum into the other compartment of a two-compartment bath, (Harrison N. L. & Simmonds M. A. (1985). Br. J. Pharmacol 84: 381-391.). Each compartment could be separately perfused with Krebs bicarbonate medium pre-gassed with 95% 02 /5% CO2 at room temperature. The volume of each compartment was 1.8 ml and the perfusion rate was 2 ml/min. The compartment containing the cortical part of the wedge was also gassed directly so that drugs could be injected into the bath with the perfusion pump stopped. This variant on the published method was adopted to minimise the amount of drug required. The potential difference between the two compartments was recorded continously via Ag/AgCl electrodes. […]\n(§2) The potency of this monoacylated spermine was tested as an antagonist of NMDA- and AMPA- induced response in a rat brain slice model. Electrophysiologically recorded depolarisation responses were reduced from control levels (% inhibition) at the following concentrations: […]"}, "NMDA receptor": {"tested_on": "NMDA receptor", "experiment": "rat cerebral cortex slice (wedge, grease-gap), NMDA-induced depolarisation response", "type": "cell-based, Wistar rats", "settings": "rat brain slice, Mg2+ omitted", "source_text": "as §1, §2"}, "[2]": {"settings": "read-out: IC50 (reduction of twitch amplitude)"}, "[3]": {"settings": "approximate, read-out: concentration at which an approximately 50% reduction of twitch amplitude was obtained"}},
  "note": "Like-named read-outs stand apart in the source and are kept apart here.",
  "data": [
    {"smiles": "NCCCNCCCCNCCCNC(=O)Cc1ccccc1O", "note": "[Example 1, N-(2-Hydroxyphenylacetyl)-spermine]", "values": [
      {"measurement": "inhibition of twitch", "setting": "[1]; 1.5 × 10^-4 M", "result": 85, "unit": "%"},
      {"measurement": "inhibition of twitch", "setting": "[1]; 1.5 × 10^-5 M", "result": 30, "unit": "%"},
      {"measurement": "inhibition of twitch", "setting": "[1]; 3 × 10^-4 M", "result": 90, "unit": "%"},
      {"measurement": "inhibition of twitch", "setting": "[1]; 3 × 10^-5 M", "result": 30, "unit": "%"},
      {"measurement": "inhibition of twitch", "setting": "[1]; 3 × 10^-6 M", "result": 20, "unit": "%"},
      {"measurement": "inhibition of twitch", "setting": "[1]; 3 × 10^-7 M", "result": 15, "unit": "%"},
      {"measurement": "inhibition of twitch", "setting": "[1]; 3 × 10^-8 M", "result": 10, "unit": "%"},
      {"measurement": "IC50", "setting": "[1]; [2]", "result": 62, "unit": "µM"}
    ]},
    {"smiles": "NCCCNCCCCNCCCNC(=O)Cc1cccc(O)c1", "note": "[Example 2, N-(3-Hydroxyphenylacetyl)-spermine]", "values": [
      {"measurement": "inhibition of twitch", "setting": "[1]; 3 × 10^-7 M", "result": 35, "unit": "%"},
      {"measurement": "inhibition of twitch", "setting": "[1]; 3 × 10^-8 M", "result": 30, "unit": "%"}
    ]},
    {"smiles": "NCCCNCCCCNCCCNC(=O)Cc1ccc(O)cc1", "note": "[Example 3, N-(4-Hydroxyphenylacetyl)-spermine]", "values": [
      {"measurement": "inhibition of twitch", "setting": "[1]; 2.95 × 10^-5 M", "result": 74, "unit": "%"},
      {"measurement": "inhibition of twitch", "setting": "[1]; 4.43 × 10^-5 M", "result": 91, "unit": "%"},
      {"measurement": "inhibition of twitch", "setting": "[1]; 5.9 × 10^-5 M", "result": 96, "unit": "%"},
      {"measurement": "inhibition of twitch", "setting": "[1]; 5.9 × 10^-6 M", "result": 25, "unit": "%"},
      {"measurement": "inhibition of twitch", "setting": "[1]; 5.9 × 10^-7 M", "result": 9, "unit": "%"},
      {"measurement": "IC50", "setting": "[1]; [2]", "result": 8.7, "unit": "µM"},
      {"measurement": "% inhibition of AMPA-induced depolarisation response", "setting": "quizqualate receptor; 10^-5 M", "result": 22, "unit": "%"},
      {"measurement": "% inhibition of AMPA-induced depolarisation response", "setting": "quizqualate receptor; 10^-6 M", "result": 0, "unit": "%"},
      {"measurement": "% inhibition of NMDA-induced depolarisation response", "setting": "NMDA receptor; 10^-5 M", "result": 35, "unit": "%"},
      {"measurement": "% inhibition of NMDA-induced depolarisation response", "setting": "NMDA receptor; 10^-6 M", "result": 29, "unit": "%"}
    ]},
    {"smiles": "NCCCNCCCCNCCCNC(=O)CCc1ccccc1O", "note": "[Example 4, N-(2-Hydroxyphenylpropanoyl)-spermine]", "values": [
      {"measurement": "IC50", "setting": "[1]; [3]", "result": "~50", "unit": "µM"}
    ]},
    {"smiles": "NCCCNCCCCNCCCNC(=O)CCc1cccc(O)c1", "note": "[Example 5, N-(3-Hydroxyphenylpropanoyl)-spermine]", "values": [
      {"measurement": "inhibition of twitch", "setting": "[1]; 1.08 × 10^-6 M", "result": 15, "unit": "%"},
      {"measurement": "inhibition of twitch", "setting": "[1]; 1.08 × 10^-7 M", "result": 10, "unit": "%"}
    ]},
    {"smiles": "NCCCNCCCCNCCCNC(=O)C=Cc1ccc(O)cc1", "note": "[Example 6, N-(4-Hydroxycinnamoyl)-spermine]", "values": [
      {"measurement": "inhibition of twitch", "setting": "[1]; 10^-5 M", "result": 70, "unit": "%"},
      {"measurement": "inhibition of twitch", "setting": "[1]; 10^-6 M", "result": 56, "unit": "%"},
      {"measurement": "inhibition of twitch", "setting": "[1]; 10^-7 M", "result": 33, "unit": "%"},
      {"measurement": "inhibition of twitch", "setting": "[1]; 10^-8 M", "result": 24, "unit": "%"},
      {"measurement": "inhibition of twitch", "setting": "[1]; 10^-9 M", "result": 18, "unit": "%"},
      {"measurement": "inhibition of twitch", "setting": "[1]; 10^-10 M", "result": 4, "unit": "%"},
      {"measurement": "IC50", "setting": "[1]; [2]", "result": 60, "unit": "µM"}
    ]},
    {"smiles": "NCCCNCCCCNCCCNC(=O)Cc1ccc(O)cc1O", "note": "[Example 7, N-(2,4-Dihydroxyphenylacetyl)-spermine]", "values": [
      {"measurement": "IC50", "setting": "[1]; [3]", "result": "~50", "unit": "µM"}
    ]},
    {"smiles": "NCCCNCCCCNCCCNC(=O)Cc1ccc(O)c(O)c1", "note": "[Example 8, N-(3,4-Dihydroxyphenylacetyl)-spermine]", "values": [
      {"measurement": "IC50", "setting": "[1]; [3]", "result": "~500", "unit": "µM"}
    ]},
    {"smiles": "NCCCNCCCCNCCCNC(=O)Cc1cc(O)cc(O)c1", "note": "[Example 9, N-(3,5-Dihydroxyphenylacetyl)-spermine]", "values": [
      {"measurement": "inhibition of twitch", "setting": "[1]; 1 07 × 10^-6 M", "result": 25, "unit": "%"},
      {"measurement": "inhibition of twitch", "setting": "[1]; 1.07 × 10^-5 M", "result": 45, "unit": "%"}
    ]},
    {"smiles": "NCCCNCCCCNCCCNC(=O)c1ccccc1O", "note": "[Example 10]", "values": [
      {"measurement": "reduction of twitch amplitude from control level", "setting": "[1]; 1.09×10^-5 M, 10.9 µM", "result": "approximately 25%"}
    ]},
    {"smiles": "NCCCNCCCCNCCCNC(=O)c1cccc(O)c1", "note": "[Example 11, N-(3-Hydroxybenzoyl)-spermine]", "values": [
      {"measurement": "reduction of twitch amplitude from control levels", "setting": "[1]; 1.02×10^-5 M, 10.2 µM", "result": "approximately 40%"}
    ]},
    {"smiles": "NCCCNCCCCNCCCNC(=O)c1ccc(O)cc1", "note": "[Example 12, N-(4-Hydroxybenzoyl)-spermine]", "values": [
      {"measurement": "IC50", "setting": "[1]; [3]", "result": "~50", "unit": "µM"}
    ]},
    {"smiles": "NCCCNCCCCNCCCNC(=O)C=Cc1cccc(O)c1", "note": "[Example 13, N-(3-Hydroxycinnamoyl)-spermine]", "values": [
      {"measurement": "reduction of twitch amplitude from control levels", "setting": "[1]; 9.2×10^-7 M, 0.92 µM", "result": "approximately 25%"}
    ]},
    {"smiles": "NCCCNCCCCNCCCNC(=O)Cc1ccc(O)c(F)c1", "note": "[Example 14, N-(3-Fluoro-4-hydroxyphenylacetyl)-spermine]", "values": [
      {"measurement": "IC50", "setting": "[1]; [3]", "result": "~500", "unit": "µM"}
    ]},
    {"smiles": "COc1ccccc1CC(=O)NCCCNCCCCNCCCN", "note": "[Example 15, N-(2-Methoxyphenylacetyl)-spermine]", "values": [
      {"measurement": "IC50", "setting": "[1]; [3]", "result": "~500", "unit": "µM"}
    ]},
    {"smiles": "COc1ccc(CC(=O)NCCCNCCCCNCCCN)cc1", "note": "[Example 16, N-(4-Methoxyphenylacetyl)-spermine]", "values": [
      {"measurement": "IC50", "setting": "[1]; [3]", "result": "~500", "unit": "µM"}
    ]},
    {"smiles": "COc1ccccc1CC(=O)NCCCNCCCNCCCN", "note": "[Example 17, N-(2-Methoxyphenylacetyl)-N',N\"-bis(3-aminopropyl)-1,3-propanediamine]", "values": [
      {"measurement": "IC50", "setting": "[1]; [3]", "result": "~900", "unit": "µM"}
    ]},
    {"smiles": "COc1ccc(CC(=O)NCCCNCCCNCCCN)cc1", "note": "[Example 18, N-(4-Methoxyphenylacetyl)-N',N\"-bis(3-aminopropyl)-1,3-propanediamine]", "values": [
      {"measurement": "IC50", "setting": "[1]; [3]", "result": "~900", "unit": "µM"}
    ]},
    {"smiles": "NCCCNCCCNCCCNC(=O)Cc1ccccc1O", "note": "[Example 19, N-(2-Hydroxyphenylacetyl)-N',N\"-bis(3-aminopropyl)-1,3-propanediamine]", "values": [
      {"measurement": "IC50", "setting": "[1]; [3]", "result": "~900", "unit": "µM"}
    ]},
    {"smiles": "NCCCNCCCNCCCNC(=O)Cc1cccc(O)c1", "note": "[Example 20, N-(3-Hydroxyphenylacetyl)-N',N\"-bis(3-aminopropyl)-1,3-propanediamine]", "values": [
      {"measurement": "reduction of twitch amplitude from control levels", "setting": "[1]; 1.04×10^-4 M, 104 µM", "result": "approximately 60%"}
    ]},
    {"smiles": "NCCCNCCCNCCCNC(=O)Cc1ccc(O)cc1", "note": "[Example 21, N-(4-Hydroxyphenylacetyl)-N',N\"-bis(3-aminopropyl)-1,3-propanediamine]", "values": [
      {"measurement": "reduction of twitch amplitude from control levels", "setting": "[1]; 1×10^-4 M, 100 µM", "result": "approximately 30%"},
      {"measurement": "IC50", "setting": "[1]; [3]", "result": "~900", "unit": "µM"}
    ]}
  ]
}
